Read-outs that look alike come from different tables or passages of the source.
Assays:
[1] = system: human sperm; experiment: Time course of sperm immobilization by CASA; type: cell-based; conditions: motile sperm incubated of each complex (footnote); motility by CASA at timed intervals
Method: […] At timed intervals (every 5 and 10 minutes) aliquots (4μl) were transferred to two 20 μm Microcell (Conception Technologies) chambers, and sperm motility was assessed by CASA.
Sperm Kinematic Parameters: For CASA, 4 μl each of sperm suspension was loaded into two 20 μm Microcell chambers placed onto a counting chamber at 37° C. At least 5-8 fieldsper chamber were scanned for analysis using a Hamilton Thorne Integrated Visual Optical System (IVOS) version 10 instrument (Hamilton Thorne Research Inc., Danvers, Mass.). Each field was recorded for 30 seconds. The Hamilton Thorne computer calibrations were set at 30 frames at a frame rate of 30 images/seconds. Other settings were as follows: minimum contrast 8; minimum size 6; low-size gate, 1.0; high-size gate, 2.9; low-intensity gate, 0.6; high-intensity gate, 1.4; phase-contrast illumination; low path velocity at 10 μm/seconds and threshold straightness at 80%; magnification factor, 1.95. The performance of the analyzer was periodically checked using the playback function. […]

[2] = system: human sperm; experiment: Sperm immobilization assay (SIA), 3 h incubation, motility by CASA; type: cell-based; conditions: for EC50: motile fractions of human sperm incubated 3 h with increasing concentrations, 37° C., read-out: EC50 (concentration of compound required for 50% sperm motility loss)
Method: Sperm Immobilization Assay (SIA): To evaluate the spermicidal effects of complexes 1-4 a highly motile fraction of pooled donor sperm(n=5) was prepared by discontinuous (90-45%) Percoll gradient (Conception Technologies, San Diego, Calif.) centrifugation and the “swim-up” method as described previously (Aitken et al., 1989, Biol. Reprod. 40:183-197). All donor specimens were obtained after informed consent and in compliance with the guidelines of the Hughes Institutional Review Board. Motile sperm (≧10×10^6/ml) were suspended in 1 ml of Biggers, Whitten, and Whittingam's medium (BWW) containing 0.3% BSA (fraction V; Sigma Chemical Co., St. Louis, Mo.) in the presence and absence of serial 2-fold dilutions of test substance (250 μM -1.9 μM) in 0.25% dimethyl sulfoxide (DMSO). For each experiment, fresh stock solutions (100 mM) of vanadium compounds were prepared in DMSO. A corresponding volume of DMSO […] was added to control sperm suspension. After 3hours of incubation at 37° C., the percentage of motile sperm was evaluated by computer-assisted sperm motion analysis (CASA) as described previously (Aitken et al., 1989, Supra). The percentages of motilities were compared with those of sham-treated control suspensions of motile sperm. The spermicidal activity of test compounds was expressed as the EC50 values (the final concentration of the compound in medium that decreases the proportion of motile sperm by 50%).
Sperm Kinematic Parameters: For CASA, 4 μl each of sperm suspension was loaded into two 20 μm Microcell chambers placed onto a counting chamber at 37° C. At least 5-8 fieldsper chamber were scanned for analysis using a Hamilton Thorne Integrated Visual Optical System (IVOS) version 10 instrument (Hamilton Thorne Research Inc., Danvers, Mass.). Each field was recorded for 30 seconds. The Hamilton Thorne computer calibrations were set at 30 frames at a frame rate of 30 images/seconds. Other settings were as follows: minimum contrast 8; minimum size 6; low-size gate, 1.0; high-size gate, 2.9; low-intensity gate, 0.6; high-intensity gate, 1.4; phase-contrast illumination; low path velocity at 10 μm/seconds and threshold straightness at 80%; magnification factor, 1.95. The performance of the analyzer was periodically checked using the playback function.
The attributes of sperm kinematic parameters evaluated included numbers of motile (MOT) and progressively (PRG) motile sperm; curvilinear velocity (VCL; a measure of the total distance traveled by a given sperm during the acquisition divided by the time elapsed); average path velocity (VAP; the spatially averaged path that eliminates the wobble of the sperm head), straight-line velocity (VSL; the straight-line distance from beginning to end of track divided by time taken), beat-cross frequency (BCF; frequency of lateral head displacement), (ALH; the mean width of sperm head oscillation), and the derivatives, straightness (STR=VSL divided by VAP×100), linearity (LIN=VSL divided by VCL×100, departure of sperm track from a straight line). Data from each individual cell track were recorded and analyzed. At least 200 sperm were analyzed for each aliquot sampled.
A non-linear regression analysis was used to find the EC50 and T1/2 values (the concentration of the compound, and the time required for 50% sperm motility loss, respectively) from the concentration effect curves.

[3] = Stability of the complexes as solids or in solution (cyclic voltammetry and UV-vis spectroscopy)
Method: UV/Vis Spectra: A UV/vis polarizer attachment was used for the polarization experiments. UV-vis spectra were recorded in a quartz cell or cuvette on a Beckman Model DU 7400 spectrophotometer and the spectral bands were registered in the 200-800 nm range.
Electrochemical Measurements: Electrochemical measurements were performed on a Bioanalytical Systems B/W 100b electrochemical analyzer with internal resistance (IR) compensation. The cyclic voltammograms taken in acetonitrile were obtained in a 0.1 M Bu4NPF6 (TABP) electrolyte solution with a 0.1 M Ag/AgNO3 reference electrode, a Platinum Disc working electrode, and a platinum wire auxiliary electrode. Solutions were purged with nitrogen: and scanned at 200 mV/s. Aqueous cyclic voltammograms were taken in a standard PBS solution, using a Ag/AgCl reference electrode, a glassy carbon working electrode, and a platinum wire auxiliary electrode. Solutions were purged with nitrogen and scanned at 200 mV/s. All potentials were referenced to the ferrocene-ferrocinium couple (E1/2=0.185 V vs Ag/AgCl in PBS).

| Compound | T1/2 (time required for 50% sperm motility loss) [1] | EC50 [2] | also measured |
| --- | --- | --- | --- |
| [O-]c1ccccc1[O-].[V+2].c1cc[cH-]c1.c1cc[cH-]c1 [Cp2V(cat) (2), Vanadocene catecholate.] | 5.8 min | 2400 nM |  |
| [O-]c1c([O-])c(Cl)c(Cl)c(Cl)c1Cl.[V+2].c1cc[cH-]c1.c1cc[cH-]c1 [Cp2V(catCl4) (1), Vanadocene tetrachloro catecholate] |  | > 250000 nM | solubility in water: not soluble in water; spermicidal activity in words ([2]; in the concentration ranges examined): no spermacidal activity; t1/2 (stability) ([3]; in acetonitrile, air, by cyclic voltammetry and UV-vis spectroscopy): about 2 hr. |
| CC(C)(C)c1cc([O-])c([O-])c(C(C)(C)C)c1.[V+4].c1cc[cH-]c1.c1cc[cH-]c1 [Cp2V(dbcat) (5), Vanadocene 1,3 ditertbutyl catecholate] |  |  | t1/2 (stability) [3]: about 2 min. |
| Vanadocene 1,3-diisopropyl catecholate [Cp2V(dpcat) (4)] |  | 290 nM |  |
| Vanadocene mono-tertbutyl catecholate [Cp2V(mbcat) (3)] | 5.4 min | 100 nM |  |
